Experimental findings from patent US20070036737A1, “PRODUCTS FOR TOPICAL A[…] LYSOPHO[…] FATTY ACIDS” (priority 2005, published 2007) are described below.

The structures appear in SMILES notation.

The assay concerns neuromuscular junction. Kind of assay: inhibition of the ex-vivo neuromuscular junction preparation (FIG. 1). Also noted: species or system mouse. The conditions noted are these: single molecule alone. The source says: The Applicants arrived at the results of the present invention in the course of their studies on the mechanism of action of snake presynaptic PLA2 neurotoxins. These presynaptic neurotoxins are major components of the venom of many poisonous snakes. Starting from: a) the established fact that these neurotoxins are endowed with a phospholipase A2 (PLA2) activity and that such activity leads to the production of LysoPLs and FAs following the hydrolysis of the fatty acid ester bond in position 2 of phospholipids (4); b) the fact that lysophospholipids and fatty acids in the appropriate membrane localization favor membrane fusion and inhibit membrane fission (5), and that c) such biological activities would lead to the depletion of synaptic vesicles from nerve terminals, as the one observed by electron microscopy upon exposure to the snake presynaptic PLA2 neurotoxins (6,7), the Applicants decided to test the effect of a mixture of lysophospholipids and fatty acids on the neuromuscular junction both in an ex-vivo preparation and in an in-vivo system.
Similar data were obtained with other lysoPLs varying with respect to R and/or with respect to R′. […] In other words, the two molecules act in a synergistic mode and this is at the very basis of the present patent. […]

With `CCCCCCCCCCCCCC(=O)OC[C@@H](O)COP(=O)([O-])OCC[N+](C)(C)C` [lysoPC, 1-Myristoyl-sn-glycero-3-phosphocholine], the “inhibition of the neuromuscular junction” value is listed as “unable to elicit a substantial inhibition”.
The result for `CCCCCCCC/C=C\CCCCCCCC(=O)O` [OA, oleic acid] reads “unable to elicit a substantial inhibition”.
